This is an account of results in the NIST ThermoML archive (doi:10.1016/j.jct.2006.03.003).

For series [1] the following is noted: 298.15 K; 101.33 kPa; Liquid.
The nature of series [2]: xn = mol fraction of the nth substance listed. The conditions noted are these: 298.15 K; 101 kPa; Liquid; x1 = 0.61.

± gives the expanded uncertainty stated by the source.

As to `CC(C)=O` [acetone], the mass density in series [1] was found to be 784.65 ± 0.31 kg/m3. As to `COC(F)(F)C(F)(C(F)(F)F)C(F)(F)F` [methyl nonafluoroisobutyl ether] + COC(F)(F)C(F)(F)C(F)(F)C(F)(F)F, the mass density in series [2] was 1516.5 ± 1.8 kg/m3. For the compound `CCC(=O)CC` [pentan-3-one], the mass density in series [1] came to 809.09 ± 0.28 kg/m3. As to `CCC(C)=O` [butanone], in series [1], the mass density turned out to be 799.75 ± 0.29 kg/m3.
